The results in this text go back to patent US8796180B2, “Aminoquinazoline compounds for combating invertebrate pests” (BASF SE, priority 2009, dated 2014).

Type in all cases: in vivo
For data set [1], the system named is Diamondback moth (Plutella xylostella). The experiment in a line: Diamondback moth leaf-dip test on Chinese cabbage (B.4). The note with it: test concentration 500 ppm, dipped Chinese cabbage leaves, mortality recorded 24, 72 and 120 hours after treatment, read-out: mortality in comparison with untreated controls. The procedure:
B.4 Diamondback moth (Plutella xylostella)
The active compound was dissolved at the desired concentration in a mixture of 1:1 (vol:vol) distilled water:acetone. The test solution was prepared at the day of use.
The activity against Plutella xylostella can be tested by the following experiments:
Leaves of Chinese cabbage were dipped in test solution and air-dried. Treated leaves were placed in petri dished lined with moist filter paper. Mortality was recorded 24, 72, and 120 hours after treatment.

Data set [2] has as its system Mediterranean fruitfly (Ceratitis capitata). The experiment in a line: Mediterranean fruitfly insect diet microtiter test (B.9). The conditions noted are these: 120 h, test concentration 800 ppm, egg and larval mortality on insect diet, 5 days. The procedure:
B. 9 Mediterranean fruitfly (Ceratitis capitata)
For evaluating control of Mediterranean fruitfly (Ceratitis capitata) the test unit consisted of microtiter plates containing an insect diet and 50-80 C. capitata eggs. The compounds were formulated using a solution containing 75% v/v water and 25% v/v DMSO. Different concentrations of formulated compounds were sprayed onto the insect diet at 5 μl, using a custom built micro atomizer, at two replications. After application, microtiter plates were incubated at about 28±1° C. and about 80±5% relative humidity for 5 days. Egg and larval mortality was then visually assessed.

Data set [3] concerns Tobacco budworm (Heliothis virescens). Description: Tobacco budworm insect diet microtiter test (B.10). The conditions noted are these: 120 h, test concentration 800 ppm, egg and larval mortality on insect diet, 5 days. The procedure:
B.10 Tobacco budworm (Heliothis virescens)
For evaluating control of tobacco budworm (Heliothis virescens) the test unit consists of 96-well-microtiter plates containing an insect diet and 15-25 H. virescens eggs. The compounds were formulated using a solution containing 75% v/v water and 25% v/v DMSO. Different concentrations of formulated compounds were sprayed onto the insect diet at 10 μl, using a custom built micro atomizer, at two replications. After application, microtiter plates were incubated at about 28±1° C. and about 80±5% relative humidity for 5 days. Egg and larval mortality was then visually assessed.

The test system of data set [4] is Southern Armyworm (Spodoptera eridania, 2nd instar larvae). The experiment in a line: Southern Armyworm foliar spray test on lima bean plants (B.1). The note with it: 96 h, assessed 4 days after treatment, read-out: mortality in comparison with untreated controls. The protocol:
B.1 Southern Armyworm (Spodoptera eridania, 2nd instar larvae)
The active compounds were formulated in cyclohexanone as a 10,0000 ppm solution supplied in 1.3 ml ABgene® tubes. These tubes were inserted into an automated electrostatic sprayer equipped with an atomizing nozzle and they served as stock solutions for which lower dilutions were made in 50% acetone: 50% water (v/v). A nonionic surfactant (Kinetic®) was included in the solution at a volume of 0.01% (v/v). Lima bean plants (variety Sieva) were grown 2 plants to a pot and selected for treatment at the 1st true leaf stage. Test solutions were sprayed onto the foliage by an automated electrostatic plant sprayer equipped with an atomizing spray nozzle. The plants were dried in the sprayer fume hood and then removed from the sprayer. Each pot was placed into perforated plastic bags with a zip closure. Ten to 11 armyworm larvae were placed into the bag and the bags zipped closed. Test plants were maintained in a growth room at 25° C. and 20-40% relative humidity for 4 days, avoiding direct exposure to fluorescent light (24 hour photoperiod) to prevent trapping of heat inside the bags. Mortality and reduced feeding were assessed 4 days after treatment, compared to untreated control plants.

Data set [5] has as its system Colorado potato beetle (Leptinotarsa decemlineata, adult). The experiment in a line: Colorado potato beetle test on treated eggplant foliage (B.3). The note with it: test concentration 300 ppm, assessed 4 days after treatment. The protocol: B.3 Colorado potato beetle (Leptinotarsa decemlineata, adult)
The active compounds were formulated in cyclohexanone as a 10,0000 ppm solution supplied in 1.3 ml ABgene® tubes. These tubes were inserted into an automated electrostatic sprayer equipped with an atomizing nozzle and they served as stock solutions for which lower dilutions were made in 50% acetone:50% water (v/v). A nonionic surfactant (Kinetic®) was included in the solution at a volume of 0.01% (v/v). Eggplants were grown 2 plants to a pot and were selected for treatment at the 1st true leaf stage. Test solutions were sprayed onto the foliage by an automated electrostatic plant sprayer equipped with an atomizing spray nozzle. The plants were dried in the sprayer fume hood and then removed from the sprayer. The treated foliage was then cut and removed from the pot and placed in a 5-inch Petri dish lined with moistened filter paper. Five beetle larvae were introduced into each Petri dish and the dish was covered by a Petri dish lid. Petri dishes were maintained in a growth room at 25° C. and 20-40% relative humidity for 4 days, avoiding direct exposure to fluorescent light (24 hour photoperiod) to prevent trapping of heat inside the dishes. Mortality and reduced feeding were assessed 4 days after treatment, compared to untreated control plants.

Where only a bound is given, the exact number is not on record here.

Consider `CCNc1nc(-c2ccc(C(F)(F)F)cc2)nc2cc(C(F)(F)F)ccc12` [I-209, [2-(4-Trifluoromethylphenyl)-7-trifluoromethyl-quinazolin-4-yl]ethylamine], for which the mortality at 500 ppm in data set [1] was at least 50%. For the same molecule, the mortality at 800 ppm in data set [2] and in data set [3] was at least 50% throughout.

Turning to `CCNc1nc(-c2ccc(Cl)cc2)nc2cc(C(F)(F)F)ccc12` [I-99, [2-(4-Chloro-phenyl)-7-trifluoromethyl-quinazolin-4-yl]ethylamine], in data set [4], the mortality at 300 ppm is at least 50%. For the same molecule, the mortality at 500 ppm in data set [1] is at least 50%. For the same molecule, the mortality at 800 ppm in data set [2] and in data set [3] was at least 50% throughout.

Take `CCNc1nc(-c2ccc(F)cc2)nc2cc(C(F)(F)F)ccc12` [I-201]: the “mortality in comparison with untreated controls” value in data set [5] is on record as “at least 50%”.
